Source: article PMC7395068, “The evolution of strategies to minimise the risk of human drug-induced liver injury (DILI) in drug discovery and development” (Archives of Toxicology, 2020)
Read-outs that look alike come from different tables or passages of the source.

Assays:
Upcyte human hepatocytes = settings: In vitro Assay; ref Tolosa 2019; cited from earlier work
[1] = read-out: Human plasma Cmax; total plasma Cmax.tot, median of 9 literature references; cited from earlier work
hLiMTs = test: Combined HCI (HCS) and cellular ATP 3D assay in hLiMTs
[2] = cited from earlier work
[3] = tested on: THLE or HepG2 cells, isolated mitochondria, BSEP; settings: cited from earlier work
[4] = plasma free fraction; cited from earlier work
HepG2 cells [5] = settings: cited from earlier work
rBsep = settings: In vitro Assay; ref Dawson 2012; cited from earlier work
HepaRG spheroids = test: Combined HCI (HCS) and cellular ATP 3D assay in HepaRG spheroids
HepG2 cells [6] = settings: cited from earlier work; remark: listed apart in the source
[7] = tested on: HepG2 cells, primary human hepatocytes; settings: In vitro Assay; ref Garside 2014; cited from earlier work
[8] = Plasma free fraction (fu) and unbound Cmax (Cmax,u); assay type: in vitro ADME, human; settings: unbound plasma Cmax
Description: The prediction of DILI severity was evaluated further using the 3D combined HCI assays using plasma-free fraction. The majority of fu values were obtained from literature, when unavailable in-house prediction was utilised. Unbound plasma Cmax concentrations (Cmax,u) were derived by multiplying total plasma Cmax with the corresponding free fraction (fu) for each compound.

[9] = tested on: THLE-Null and THLE-3A4 cells; settings: In vitro Assay; ref Gustafsson 2014; cited from earlier work
[10] = cited from earlier work; remark: listed apart in the source
[11] = Microtissue model structural based (HCI), combined HCS and ATP, MEC < 25 × Cmax.tot cut-off
[12] = Modeled in vitro assays (cytotoxicity, mitochondrial dysfunction, BSEP), ref Aleo et al. 2019

C[N+](C)(C)CC(=O)O [betaine, reference compound]
Upcytes multi donor assay 14day data (Upcyte human hepatocytes): -VE | Cmax [1]: 944 µM | DILI prediction hLiMTs (HCS-MEC) (hLiMTs; [11]): -VE | hLiMTs <25x Avg Cmax ATP (hLiMTs; hLiMTs, ATP endpoint, cut-off <25x Avg Cmax): -ve | hLiMTs <100x Avg Cmaxu ATP (hLiMTs; hLiMTs, ATP endpoint, cut-off <100x Avg Cmaxu): -ve | hLiMTs <25x Avg Cmax HCS (hLiMTs; hLiMTs, HCS endpoints, cut-off <25x Avg Cmax): -ve | hLiMTs <100x Avg Cmaxu HCS (hLiMTs; hLiMTs, HCS endpoints, cut-off <100x Avg Cmaxu): -ve | hLiMTs <25x Avg Cmax All (hLiMTs; hLiMTs, all endpoints (ATP and HCS), cut-off <25x Avg Cmax): -ve | hLiMTs Cmax max All (hLiMTs; hLiMTs, all endpoints, Cmax max used): -ve | hLiMTs Cmax min All (hLiMTs; hLiMTs, all endpoints, Cmax min used): -ve | hLiMTs <10 uM All (hLiMTs; hLiMTs, all endpoints, cut-off <10 uM): -ve | hLiMTs <100x Avg Cmaxu All (hLiMTs; hLiMTs, all endpoints, cut-off <100x Avg Cmaxu): -ve | DILI severity category (Chen et al. [2016]) ([2]; LTKB DILIrank category, ref Chen et al. 2016): No | DILI severity category (Chen 2016) ([2]; human DILI classification, LTKB DILIrank, ref Chen et al. 2016): No | DILI severity category ([2]; human DILI severity, ref Chen et al.): No | DILI +VE (5-8), DILI -VE (-4) ([2]; ref Chen 2016): -VE | DILI severity category ([2]; ref Chen 2016): vNo-DILI-Concern | Partition Hybrid HRM Score ([3]; In vitro Assay, ref Aleo 2019): -VE | Ro2 Hybrid HRM Score ([3]; In vitro Assay, ref Aleo 2019): -VE | Partition Hybrid HRM Score ≥4, Aleo (2019) [3, 12]: -VE | Partition Hybrid HRM Score ≥8, Aleo (2019) [3, 12]: -VE | Rule of Two hybrid HRM Score ≥3, Aleo (2019) [3, 12]: -VE | Rule of Two hybrid HRM Score ≥8, Aleo (2019) [3, 12]: -VE | fu [4]: 0.760 | Structural based (HCI) (HepG2 cells [5]; In vitro Assay, ref Tolosa 2012): -VE | DILI in vitro assay prediction, Tolosa (2012) (HepG2 cells [5]; Structural based (HCI), HepG2, ref Tolosa et al. 2012): -VE | Inhibition of rBsep cutoff<1& cmax u>.2 (rBsep): -VE | Inhibition of rBsep cutoff<3 (rBsep): -VE | HepaRG <25x Avg Cmax ATP (HepaRG spheroids; HepaRG, ATP endpoint, cut-off <25x Avg Cmax): -ve | HepaRG <100x Avg Cmaxu ATP (HepaRG spheroids; HepaRG, ATP endpoint, cut-off <100x Avg Cmaxu): -ve | HepaRG <25x Avg Cmax HCS (HepaRG spheroids; HepaRG, HCS endpoints, cut-off <25x Avg Cmax): -ve | HepaRG <100x Avg Cmaxu HCS (HepaRG spheroids; HepaRG, HCS endpoints, cut-off <100x Avg Cmaxu): -ve | HepaRG <25x Avg Cmax All (HepaRG spheroids; HepaRG, all endpoints (ATP and HCS), cut-off <25x Avg Cmax): -ve | HepaRG Cmax max All (HepaRG spheroids; HepaRG, all endpoints, Cmax max used): -ve | HepaRG Cmax min All (HepaRG spheroids; HepaRG, all endpoints, Cmax min used): -ve | HepaRG <10 uM All (HepaRG spheroids; HepaRG, all endpoints, cut-off <10 uM): -ve | HepaRG <100x Avg Cmaxu All (HepaRG spheroids; HepaRG, all endpoints, cut-off <100x Avg Cmaxu): -ve | DILI prediction HepaRG spheroids (HCS-MEC) (HepaRG spheroids; [11]): -VE | Structural based (HCI) (HepG2 cells [6]; In vitro Assay, ref O'Brien 2006): +VE | DILI in vitro assay prediction, O'Brien (2006) (HepG2 cells [6]; Structural based (HCI), HepG2, ref O'Brien et al. 2006): +VE (lowest HCI endpoint IC50 (or in the absence of dose–response < 100 µM) < 30 × total human plasma exposure levels (Cmax.tot)) | Cluster 1-6 +VE Assay [7]: -VE | Human plasma Cmax,u [8]: 717.446 µM | THLE-Null [9]: -VE | THLE-Null/3A4 [9]: -VE | Assigned DILI category ([10]; Chen et al. 2016 or literature alignment, ref Chen et al. 2016): 1 | In vivo DILI ([10]; ref Aleo 2019): -VE | In vivo DILI ([10]; ref Dawson 2012): -VE | In vivo DILI ([10]; ref Garside 2014): -VE | In vivo DILI ([10]; ref Gustafsson 2014): -VE | In vivo DILI ([10]; ref O'Brien 2006): -VE | In vivo DILI ([10]; ref Tolosa 2012): -VE | In vivo DILI ([10]; ref Tolosa 2019): -VE
